From ChEMBL document CHEMBL1201862, “PubChem BioAssay data set” (2004) come the findings set out here.

Common to all, as to assay: NCI tumour cell line growth inhibition, 48 h
For assay [1], the system named is CAKI-1.
The subject of assay [2] is K562.
Assay [3] concerns IGROV-1.
Assay [4] has as its system HCT-15.
The test system of assay [5] is SR.
The subject of assay [6] is LOX IMVI.
Assay [7] relates to HCT-116.
Assay [8] has as its system Malme-3M.
For assay [9], the system named is RXF 393.
In assay [10] the test system is RPMI-8226.
Assay [11] has as its system U-251.
The subject of assay [12] is SF-539.
Assay [13] relates to NCI-H23.
Assay [14] relates to 786-0.
Assay [15] deals with OVCAR-4.
Assay [16] deals with UACC-62.
Assay [17] deals with MOLT-4.
Assay [18] relates to CCRF-CEM.

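96-well plates; 48 h exposure; 5 concentrations. Endpoints by linear interpolation between flanking doses. Not reached: highest tested concentration assigned. Here, GI50 denotes the concentration required for 50% inhibition of growth.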 The source made the active and inactive calls. Rule as the data show it: active = GI50 up to about 1.1 µM and inactive = higher. Non-standard residues stand in square brackets, D forms with d. Residues, ends and D or L forms follow the SMILES beside them. ξ: configuration not given here. *: point of attachment. ξNMeF = CNC(Cc1ccccc1)C(=O)O; NMeV = CN[C@H](C(=O)O)C(C)C; Boc = CC(C)(C)OC(=O)*; OBn = c1ccc(CO*)cc1 Bounds are passed on as bounds.

As to `CC(=O)c1ccc(NC(=O)C(=O)CC(=O)c2sc(-n3nc(-c4ccccc4)cc3-c3ccccc3)nc2C)cc1`, the GI50 is > 100 µM (inactive) in assay [1]; > 100 µM (inactive) in assay [2]; > 100 µM (inactive) in assay [3]; > 100 µM in [4]; > 100 µM (inactive) in assay [5]; > 100 µM (inactive) in [6]. For the same compound, the GI50 in [7], in assay [8], in assay [9], in assay [10], in [11] and in assay [12] was > 100 µM (inactive) in each case. Further, the GI50 in [13], in [14], in assay [15], in assay [16], in assay [17] and in assay [18] was > 100 µM (inactive) each time.
Consider `CC(C)[C@@H](C(=O)N(C)[C@H](C(=O)N1CCC[C@H]1C(=O)OCc1ccccc1)C(C)C)N(C)C(=O)C(Cc1ccccc1)N(C)C(=O)[C@H](NC(=O)OC(C)(C)C)C(C)C` (stereo not given in full) (Boc-[dV][ξNMeF][NMeV][NMeV]P-OBn), for which the GI50 in assay [1] was > 31.6 µM (inactive); in assay [2] it was 13.5 µM (inactive); in assay [3], > 31.6 µM (inactive); in assay [4], > 31.6 µM; in assay [5] it was 19.7 µM (inactive); in assay [6], > 31.6 µM (inactive). The GI50 was > 31.6 µM (inactive) in assay [7]; > 84.9 µM (inactive) in assay [8]; > 31.6 µM (inactive) in assay [9]; 10.4 µM (inactive) in assay [10]; > 31.6 µM (inactive) in assay [11]; > 31.6 µM (inactive) in assay [12]. The GI50 in assay [14] is > 46.8 µM (inactive); in assay [16] it was > 31.6 µM (inactive); in [17], 10.7 µM (inactive); in [18], > 31.6 µM (inactive).
As for `COC(=O)C(=O)C(C(=O)C(=O)Nc1ccc(Cl)cc1C)c1nc2ccc(C(=O)c3ccccc3)cc2nc1O` (stereo not given), the GI50 in [1] is 68.4 µM (inactive); in [2], 29 µM (inactive); in assay [3], > 100 µM (inactive); in [4], > 100 µM; in assay [5], 43.5 µM (inactive); in assay [6] it was > 100 µM (inactive). In addition, the GI50 in [7] was > 100 µM (inactive); in [8], > 100 µM (inactive); in [9] it was 52.2 µM (inactive); in assay [10] it was > 100 µM (inactive); in assay [11] it was > 100 µM (inactive); in assay [12], 58.5 µM (inactive). For the same compound, the GI50 in assay [13] was > 100 µM (inactive); in assay [14], > 100 µM (inactive); in [15], > 100 µM (inactive); in assay [16] it was 61.9 µM (inactive); in [17], 51.1 µM (inactive); in [18], 50.6 µM (inactive).
Consider `CC(C)(C)NNC(=O)/C(=C/c1ccc(Oc2ccc(Cl)c(Cl)c2)cc1)NC(=O)c1ccccc1`, for which the GI50 was > 100 µM (inactive) in assay [1]; 42.5 µM (inactive) in assay [2]; > 100 µM (inactive) in assay [3]; > 100 µM in assay [4]; 16.9 µM (inactive) in assay [5]; 18.9 µM (inactive) in assay [6]. Moreover, the GI50 was > 100 µM (inactive) in [7]; > 100 µM (inactive) in [8]; > 100 µM (inactive) in [9]; 22.1 µM (inactive) in [10]; > 100 µM (inactive) in assay [11]; > 100 µM (inactive) in assay [12]. Besides, the GI50 was > 100 µM (inactive) in assay [13]; 59.6 µM (inactive) in assay [14]; > 100 µM (inactive) in assay [15]; > 100 µM (inactive) in assay [16]; 65 µM (inactive) in assay [17]; 69.5 µM (inactive) in [18].
In the case of `COC1CCC2C(NS(=O)(=O)c3ccc(C)cc3)CCCC2O1.Cc1ccc(S(=O)(=O)NC(C)(C)C=O)cc1` (stereo not given), the GI50 was 20.3 µM (inactive) in assay [1]; 9.68 µM (inactive) in [2]; 16.4 µM (inactive) in assay [3]; 15.6 µM in assay [4]; 5.62 µM (inactive) in assay [6]; 7.33 µM (inactive) in [7]. The GI50 in assay [8] was 23 µM (inactive); in [9] it was 11.4 µM (inactive); in assay [10], 6.21 µM (inactive); in assay [11] it was > 34.5 µM (inactive); in assay [12], 20 µM (inactive); in [13] it was 11.1 µM (inactive). The GI50 in assay [14] is 19.9 µM (inactive); in assay [15], 12.6 µM (inactive); in assay [16] it was 33 µM (inactive); in [17], 8.3 µM (inactive); in assay [18], 10.2 µM (inactive).
As to `COC1OCC(O)C(NC(=O)N(C)N=O)C1O` (stereo not given), the GI50 in assay [1] was > 100 µM (inactive); in assay [2], > 100 µM (inactive); in [3], > 100 µM (inactive); in assay [4], > 100 µM; in [6], > 100 µM (inactive); in assay [7], > 100 µM (inactive). The GI50 in [8], in assay [9], in assay [10], in [11], in [12] and in assay [13] was > 100 µM (inactive) each time. In addition, the GI50 in assay [15], in [16], in assay [17] and in [18] was > 100 µM (inactive) throughout.
Regarding `COC(=O)[C@]1(C)C(OC)=CC(=O)C2C1[C@H]1CCC[C@@H]21` (stereo not given in full), the GI50 in assay [1] is > 100 µM (inactive); in [2], > 100 µM (inactive); in assay [3], > 100 µM (inactive); in assay [4] it was > 100 µM; in [5], > 100 µM (inactive); in [6], > 100 µM (inactive). Also, the GI50 in [7], in [8], in assay [9], in assay [10], in assay [11] and in assay [12] was > 100 µM (inactive) throughout. Besides, the GI50 in assay [13], in [14], in [16], in assay [17] and in assay [18] was > 100 µM (inactive) in each case.
`CC1(C)C2=CCCC(=O)[C@@]2(C)CC[C@@H]1O`: the GI50 in assay [1], in [2], in assay [3], in assay [5], in assay [6] and in [7] was > 100 µM (inactive) each time. The GI50 in [9], in assay [10], in assay [11], in assay [12], in assay [13] and in assay [14] was > 100 µM (inactive) each time. In addition, the GI50 in [15], in assay [16], in [17] and in assay [18] was > 100 µM (inactive) in each case.
With `COP1(=O)Oc2ccccc2C(=O)C(C(F)(F)F)(C(F)(F)F)O1` (stereo not given), the GI50 in assay [1] is 50.6 µM (inactive); in assay [2] it was > 100 µM (inactive); in assay [3] it was > 100 µM (inactive); in assay [4], > 100 µM; in [5] it was > 100 µM (inactive); in assay [6], > 100 µM (inactive). Moreover, the GI50 in [7] was > 100 µM (inactive); in [9], > 100 µM (inactive); in assay [10], 42.9 µM (inactive); in [11], > 100 µM (inactive); in assay [12] it was > 100 µM (inactive); in [13] it was > 100 µM (inactive). The GI50 in assay [14], in [15], in assay [16], in [17] and in assay [18] was > 100 µM (inactive) each time.
For `O=C(N/C(=C\c1ccccc1Cl)c1nc2ccccc2[nH]1)c1ccccc1`, the GI50 in assay [1] was 29.5 µM (inactive); in assay [2], 24.5 µM (inactive); in assay [3] it was 25.1 µM (inactive); in assay [4], 25.8 µM; in assay [5], 23.3 µM (inactive); in assay [8], 23.5 µM (inactive). The GI50 was 27.4 µM (inactive) in [9]; 27 µM (inactive) in assay [11]; 32.7 µM (inactive) in assay [12]; 25.1 µM (inactive) in [13]; 32.7 µM (inactive) in assay [14]; 29 µM (inactive) in assay [15]. The GI50 in assay [16] is 21.4 µM (inactive); in [17] it was 20.6 µM (inactive); in [18], 30.4 µM (inactive).
As to `COC(=O)C[C@](O)(CCC(C)(C)O)C(=O)O[C@@H]1C(OC)=C[C@]23CCCN2CCc2cc4c(cc2[C@H]13)OCO4` [HARRINGTONINE], the GI50 is 0.193 µM (active) in assay [1]; 0.05 µM (active) in assay [2]; 0.0505 µM (active) in [3]; 0.379 µM in assay [4]; 0.047 µM (active) in assay [6]; 0.0336 µM (active) in [7]. In addition, the GI50 in assay [8] is 0.0284 µM (active); in [9], 0.103 µM (active); in assay [10], 0.0566 µM (active); in assay [11] it was 0.0515 µM (active); in assay [12] it was 0.0295 µM (active); in [13] it was 0.0863 µM (active). Besides, the GI50 in [15] was 0.0785 µM (active); in assay [16], 0.23 µM (active); in assay [17], 0.0333 µM (active); in [18] it was 0.0508 µM (active).
For `Nc1nc(=O)[nH]c2c1cnn2Cc1ccccc1`, the GI50 in assay [1] is > 100 µM (inactive); in assay [2], > 100 µM (inactive); in assay [3] it was > 100 µM (inactive); in [4], > 100 µM; in assay [5], > 100 µM (inactive); in assay [6] it was > 100 µM (inactive). The GI50 in assay [7] is > 100 µM (inactive); in assay [8] it was > 100 µM (inactive); in assay [9], 1.4 µM (inactive); in assay [10] it was > 100 µM (inactive); in assay [11], 1.4 µM (inactive); in [12], > 100 µM (inactive). Further, the GI50 was 1.56 µM (inactive) in assay [13], > 100 µM (inactive) in [15], > 100 µM (inactive) in assay [17] and > 100 µM (inactive) in [18].
